Source: US20070031356A1, “Beta-carotene modulation of gene expression” (priority 2005, published 2007)
Values joined by “and” are separate entries in the source; they are usually repeats but may differ in a detail not shown here. Equal entries are not always repeated. “Also recorded” adds a separate entry of the source.

Tests used:
caspase-3 = experiment: Caspase-3 activity (CaspACE Assay System); format: cell-based, human
Method: Cells were supplemented with β-carotene for 2 days and prior to UVA irradiation (270 kJ/m^2). Caspase-3 activity was determined at 5 hours after irradiation. Values are mean±standard error of an experiment with four replicates.
Caspase-3 activity 5 hours after UVA irradiation was quantified in five separate experiments using the CaspACE™ Assay System (Promega/Catalys, Switzerland).

[1] = β-carotene concentration in culture medium during incubation; format: physicochemical; settings: during the 24 hours of incubation, irrespective of the presence of cells
Method: (§1) β-carotene-containing medium was prepared as follows. Fresh all-E-β-carotene (DSM Nutritional Products, Kaiseraugst, Switzerland) stock solution in THF (containing 0.025% BHT; Fluka Chemie AG, Switzerland) was diluted 1:2 with ethanol and added to cell culture medium to a final concentration of 1.5 μM β-carotene. The solvent concentration in the medium was 0.5% for all treatments. β-carotene-containing medium was prepared fresh for the daily medium changes.

[2] = β-carotene supplementation, rodents (e.g. Mathews-Roth, 1982); cited from earlier work
[3] = cited from earlier work
HaCaT cells [4] = settings: cited from earlier work
HaCaT cells [5] = experiment: TaqMan QRT-PCR of key genes; format: cell-based, human
Method: Cells were supplemented with β-carotene for 2 days prior to UVA irradiation (270 kJ/m^2) either in normal PBS or D2O-PBS. Gene expression 5 hours after irradiation was determined by quantitative real time polymerase chain reaction. (“QRT-PCR”). Values are geometric mean±standard error of three experiments.
Key gene regulation was confirmed in three independent cell irradiation experiments using TaqMan® QRT-PCR as described (Wertz, 2004). In these experiments, cells were pretreated with 0.5, 1.5, or 3 μM β-carotene, to analyze for dose-dependent β-carotene effects. In addition, cells were irradiated either in D2O-containing PBS or in H2O-containing PBS, to analyze for the ^1O2 inducibility of genes.

[6] = tested on: HaCaT human keratinocytes; experiment: Affymetrix GeneChip microarray, gene regulation by β-carotene and/or UVA; format: cell-based
Method: UVA exposure is thought to cause skin aging mainly by singlet oxygen (^1O2)-dependent pathways. Using microarray hybridization the effect of pretreatment with the ^1O2 quencher β-carotene (1.5 μM) on prevention of UVA-induced gene regulation in HaCaT human keratinocytes was explored.
The cell culture experiments were carried out as described (Wertz, 2004). Briefly, a subclone of passage 65 HaCaT keratinocytes, selected for differentiation capacity, was used at passages 16 to 23 after subcloning. 2×10^5 cells were seeded per 60 millimeter dish. Starting the following day, the cells were pretreated for 2 days with β-carotene at 1.5 μM, a typical concentration in human plasma after moderate dietary supplementation (Thurmann, 2002).
as §1
On day 3 of the experiment, the cells were irradiated with a Hönle sun lamp Sol 500 (270 kJ/m^2; Dr. Hönle, Germany).
Five independent, factorially designed cell irradiation experiments were analyzed by microarray hybridization. For each experiment, one chip was hybridized per treatment condition. GeneChip® analysis was done as described in Siler, 2004, which is incorporated by reference as if recited in full herein. Gene regulation by β-carotene and/or UVA was calculated relative to placebo.
Changes in gene expression were included in further analysis only if the change factor was ≧0.5 or ≦−0.5, and if unpaired t-tests yielded p values ≦0.05. Upregulations by a change factor of ≧0.5 are labeled bold, downregulations by a change factor of ≦−0.5 are labeled bold italics. (Table 1.) To identify the pathways affected by the treatments functional information on the genes was retrieved from public literature databases.

[7] = UVA 270 kJ/m^2, 5 hours after irradiation
[8] = UVA 270 kJ/m^2 after 1.5 μM 2 days, vs placebo
[9] = unirradiated, 1.5 μM 2 days, vs placebo

β-carotene concentration in medium dropped to [1]: approximately 50%
IGF-BP 3; insulin-like growth factor-binding protein-3 gene (M35878) change factor [6, 8]: 1.73
ILK; integrin-linked kinase (U40282) change factor [6, 8]: Downregulation
PAR-2; proteinase activated receptor-2 (U34038) change factor [6, 8]: 1.34
TRIP14; ′2-5′ oligoadenylate synthetase (AJ225089) change factor [6, 8]: 0.67
BUB1; mitotic checkpoint kinase (AF053305) change factor [6, 9]: downregulated
COX-2, cyclooxygenase-2 (U04636) change factor [6, 9]: mildly downregulated
DNA ligase III (X84740) change factor [6, 9]: downregulated
EGFR; precursor of epidermal growth factor receptor (X00588) change factor [6, 9]: downregulated
IGF-BP 3; insulin-like growth factor-binding protein-3 gene (M35878) change factor [6, 9]: 0.22
KRS-2; stress responsive serine/threonine protein kinase (U60207) change factor [6, 9]: downregulated
RETSDR1; retinal short-chain dehydrogenase/reductase (AF061741) change factor [6, 9]: induced
TLR3; toll-like receptor 3 (U88879) change factor [6, 9]: upregulated
TRIP14; ′2-5′ oligoadenylate synthetase (AJ225089) change factor [6, 9]: −0.07
Structure (SMILES): CC1=C(/C=C/C(C)=C/C=C/C(C)=C/C=C/C=C(C)/C=C/C=C(C)/C=C/C2=C(C)CCCC2(C)C)C(C)(C)CCC1 [β-Carotene, all-E-β-carotene]
caspase-3 activity / apoptosis (caspase-3; unirradiated cells, β-carotene alone): not sufficient to induce apoptosis; also recorded: Neither UVA nor β-carotene alone activated caspase-3
caspase-3 activity (caspase-3; β-carotene 2 days then UVA 270 kJ/m^2, 5 hours after irradiation): dose-dependent induction of caspase-3 activity
skin carcinogenesis [2]: reduced
UV-induced immune suppression ([3]; (Fuller, 1992)): prevents
number of sunburn cells ([3]; β-carotene supplementation, humans (Garmyn, 1995)): did not alter
sunburn erythema after sun exposure ([3]; β-carotene supplementation, literature studies): alleviates; also recorded: mild reduction; also recorded: mildly reduces
UVA induction of MMP-3 (HaCaT cells [4]; (Wertz, 2004)): downregulated
basal and 1O2-induced expression of MMP-1 (HaCaT cells [4]; (Wertz, 2004)): reduced
basal MMP-1 expression (HaCaT cells [4]; unirradiated (Wertz, 2004)): mildly reduces
basal expression of MMP-10, QRT-PCR in independent experiments (HaCaT cells [4]; unirradiated (Wertz, 2004)): confirmed
UVA-induced GADD34 transcription (QRT-PCR) (HaCaT cells [5]; [7]): enhancement
UVA-induced GADD153 transcription (QRT-PCR) (HaCaT cells [5]; [7]): enhancement
MMP-10 induction by UVA/D2O (HaCaT cells [5]; UVA/D2O): dose-dependently inhibited
integrinα6 transcription (QRT-PCR) (HaCaT cells [5]; irradiated and unirradiated HaCaT cells, 5 hours after irradiation): confirmed downregulation; also recorded: inhibition
BPAG1; bullous pemphigoid antigen (M69225) change factor [6, 8]: Downregulation
C-FOS (V01512) change factor [6, 8]: 1.36
ERF-2 (X78992) change factor [6, 8]: enhanced
GADD34 (U83981) change factor [6, 8]: enhanced
GADD153 (S62138) change factor [6, 8]: upregulation; also recorded: enhanced
IL6; Interleukin 6; IFNβα2a (X04430) change factor [6, 8]: enhanced
JUND (X56681) change factor [6, 8]: 1.83 and 1.66
KLF4; EZF (epithelial Zn finger) (U70663) change factor [6, 8]: upregulation
Lekti (AJ228139) change factor [6, 8]: upregulated
MMP10 (X07820) change factor [6, 8]: inhibited
TDAG51; PQ-rich protein; PHLDA1 (Z50194) change factor [6, 8]: enhanced
c-myc (V00568) change factor [6, 8]: 2.45
connexin 31 (AF099730) change factor [6, 8]: upregulation
connexin 45 (U03493) change factor [6, 8]: Downregulation
integrin α6 (X53586) change factor [6, 8]: Downregulation
serpinB1 (M93056) change factor [6, 8]: upregulated
number of genes regulated by co-treatment with UVA radiation and β-carotene ([6]; UVA + β-carotene): 1142 genes
UVA induction of PAR-2 ([6]; UVA-irradiated keratinocytes): further increased
UVA upregulation of IFNα/Iβ targets ([6]; UVA-irradiated keratinocytes): reduced
UVA upregulation of VEGF ([6]; UVA-irradiated keratinocytes): reduced
desmocollins gene regulation ([6]; UVA/β-carotene treatment): Downregulation
TIMP-1 gene regulation ([6]; all treatments): not influenced
UVA-regulated genes for which β-carotene enhanced the UVA effect ([6]; of 568 UVA-regulated genes): 180 genes
UVA-regulated genes for which β-carotene had no effect ([6]; of 568 UVA-regulated genes): 245 genes
UVA-regulated genes for which β-carotene reduced the UVA-induced effect ([6]; of 568 UVA-regulated genes): 143 genes
co-treatment-regulated genes not regulated by only UVA or β-carotene alone ([6]; of the 1142 genes): 610 genes
Bax gene regulation ([6]; unirradiated keratinocytes): upregulated
JUN-B gene regulation ([6]; unirradiated keratinocytes): downregulated
VEGF gene regulation ([6]; unirradiated keratinocytes): mildly downregulated
BMP2a; bone morphogenetic protein 2a (bmp-2a) (M22489) change factor [6, 9]: downregulated
BPAG1; bullous pemphigoid antigen (M69225) change factor [6, 9]: decreased
ENDOGL-2 (AB020735) change factor [6, 9]: upregulated
FRA-2 (X16706) change factor [6, 9]: downregulated
GEM (U10550) change factor [6, 9]: downregulated
HOXD4 (X59373) change factor [6, 9]: downregulated
ID-2H (D13891) change factor [6, 9]: downregulated
IL6; Interleukin 6; IFNβα2a (X04430) change factor [6, 9]: upregulated
IL18; IGIF (IFNγ inducing factor) (D49950) change factor [6, 9]: downregulated
IRF-9; p48; ISGF3γ; Interferon-stimulated transcription factor 3γ (M97935) change factor [6, 9]: −0.18
MMP10 (X07820) change factor [6, 9]: reduced
NCF2; p67-phox; neutrophil oxidase factor (M32011) change factor [6, 9]: downregulated
NOTCH3 (U97669) change factor [6, 9]: downregulated
NRF2, subunit beta 1 (U13045) change factor [6, 9]: downregulated
RPA; replication protein A 14kda subunit (rpa) (L07493) change factor [6, 9]: −0.04
Requiem (AF001433) change factor [6, 9]: upregulated
SMAD1 (U59423) change factor [6, 9]: −0.27
TIEG, EGRα (AF050110) change factor [6, 9]: downregulated; also recorded: downregulation
TSSC3/IPL (AF001294) change factor [6, 9]: downregulation
WNT5A (I20861) change factor [6, 9]: downregulated
collagen type IV, α-5 (COL4A5) (M58526) change factor [6, 9]: decreased
integrin α6 (X53586) change factor [6, 9]: decreased
keratin 15 (J00124) change factor [6, 9]: decreased
number of genes regulated by β-carotene ([6]; β-carotene alone, change factor ≧0.5 or ≦−0.5, p ≦0.05): 381 genes
